Data published in USRE46943E1, “Radioprotector compounds and methods” (PETER MACCALLUM CANCER INSTITUTE, priority 2010, dated 2018).

Legend:
[1] = system: transformed human keratinocyte cell line (FEP 1811); test: Clonogenic survival cell culture assay for cytotoxicity; type: cell-based; conditions: Homo sapiens, Keratinocyte, light or radiation study; un-irradiated keratinocytes, one hour drug exposure, colonies counted after eight days; read-out: C50 (concentration of radioprotector that results in 50% clonogenic survival)
Procedure: • i. […] In appropriate cases, tautomers are drawn to illustrate potential hydrogen-bond donating configurations into the minor groove of DNA. • ii. 2-Amino-4-(5′-(4″-methylpiperazin-1″-yl)benzimidazol-2′-yl)aniline was prepared by hydrogenation of 4-(5′-(4″-methylpiperazin-1″-yl)benzimidazol-2′-yl)-2-nitroaniline, using a modification of the method of Kelly et al, Aust. […] 2-Amino-4-(5′-(piperidin-1″-yl)benzimidazol-2′-yl)aniline was prepared by hydrogenation of 2-nitro-4-(5′-(piperidin-1″-yl)benzimidazol-2′-yl)aniline, using a modification of the method of Kelly et al, Aust. […] Ethyl 4-amino-3-nitrobenzenecarboximidate hydrochloride was prepared by reaction of 4-amino-3-nitrobenzonitrile with dry HCl gas in ethanol, using the method of Kelly et al, Aust. […] 5-(4′-Methylpiperazin-1′-yl)-2-nitroaniline was prepared using a modification of the method of Kelly et al, Aust. […] The following chemicals were obtained from the chemical suppliers indicated: 2-furaldehyde (Aldrich), 2-pyridinecarboxaldehyde (Aldrich), 3-fluoropyridine-2-carbaldehyde (Maybridge), 3-trifluoromethylpyridine-2-carboxaldehyde (Apollo Scientific), 6-methyl-2-pyridinecarboxaldehyde (Matrix Scientific), 5-methylpyridine-2-carbonitrile (Apollo Scientific), 4-methyl-2-pyridinecarbonitrile (Aldrich), 4-chloro-2-pyridinecarbonitrile (Aldrich), 4-methoxypicolinonitrile (Combi-Blocks), pyrazinecarbonitrile (Aldrich), 2-quinolinecarbonitrile (Aldrich), 3-isoquinolinecarbonitrile (Aldrich), 1-isoquinolinecarboxylic acid (Aldrich), indazole-3-carboxylic acid (Aldrich), 2-hydroxynicotinic acid (Aldrich), 4-hydroxypiperidine (Aldrich), 1-methylhomopiperazine (Aldrich), 3-hydroxypiperidine (Aldrich), 4-(N-BOC-amino)piperidine (Aldrich), 4-methoxypiperidine (Acros), 4-methyl-3-nitrobenzonitrile (Aldrich), 5-chloro-2-nitroaniline (Aldrich), 2-cyanopyridine (Aldrich), methyl 4-amino-2-methoxybenzoic acid (Aldrich), 4-(trifluoromethyl)-2-pyridinecarbonitrile (Matrix Scientific), cis-2,6-dimethylmorphoiline (Acros), 5-(trifluoromethyl)-2-pyridinecarbonitrile (Advanced Chemical Intermediates) and 5-fluoro-2-pyridinecarbonitrile (Advanced Chemical Intermediates). • ix. […] Melting points were determined using an Electrothermal melting point apparatus, and are uncorrected. […] The abbreviations s for singlet, d for doublet, t for triplet, q for quartet, br for broad and m for muitiplet were used in the assignments of multiplicity. A value approximating the centre of a multiplet is quoted. […] The addition of a few drops of acetic acid to methanol-d4 solutions was used to enhance solubility for the acquisition of ^13C nmr spectra. Mass spectra were recorded on a Micromass Quattro II mass spectrometer and accurate mass analyses were carried out by the School of Chemistry at the University of Melbourne on a Finnigan LTQ-FT model high resolution mass spectrometer. Thin layer chromatography (TLC) was carried out using Merck silica gel 60 F254 aluminium sheets or Merck neutral aluminium oxide 150 F254 sheets. Flash column chromatography was carried out using Ajax silica gel 230-400 mesh. • xi. […] The details are described in detail in Martin et al (4) (the disclosure of which is included herein in its entirety by way of reference), but briefly, mid-log phase monolayer cultures are incubated with various concentrations of the test drugs for one hour, after which the monolayers are washed and dispersed into single cell suspensions using pronase, and finally appropriate numbers of cells are dispensed into Petri dishes. Colonies are counted after eight days incubation. […] The irradiation (with a dose rate of 0.6 Gy per minute) is started 30 minutes after addition of the test drug. After completion of irradiation, incubation of cultures is continued until the total time of exposure to the drug reaches 60 minutes. Cultures are then washed and plated for clonogenic survival as described for the cytotoxicity experiments.

[2] = system: transformed human keratinocyte cell line (FEP 1811); test: Clonogenic survival cell culture assay for radioprotective activity (12 Gy 137Cs gamma irradiation); type: cell-based; conditions: 12 Gy; for DMF10 (dose modification factor at a concentration of 10 microM of radioprotector): 10 microM radioprotector; for DMFm (dose modification factor at maximum protection): DMF=Dp/Dc at survival level Sm; for PF (protection factor = Sm/So): survival at maximum protection vs irradiation only
Text: PF is defined as a ratio of survival at maximum protection Sm and survival after irradiation only So: PF=Sm/So. DMF is defined as a ratio of doses that result in survival level of Sm in the presence Dp and the absence Dc of radioprotector: DMF=Dp/Dc. DMF10 is define in a similar way except that instead of Sm a survival at 10 microM of radioprotector is used.
PF (Protection Factor) is defined as a ratio of survival at maximum protection Sm and survival after irradiation only So:PF=Sm/So. DMF (Dose Modification Factor) is defined as a ratio of doses that result in survival level of Sm in the presence (Dp) and the absence (Dc) of radioprotector: DMF=Dp/Dc. DMF10 is defined in a similar way except that instead of Sm a survival at 10 microM of radioprotector is used.
• i. […] In appropriate cases, tautomers are drawn to illustrate potential hydrogen-bond donating configurations into the minor groove of DNA. • ii. 2-Amino-4-(5′-(4″-methylpiperazin-1″-yl)benzimidazol-2′-yl)aniline was prepared by hydrogenation of 4-(5′-(4″-methylpiperazin-1″-yl)benzimidazol-2′-yl)-2-nitroaniline, using a modification of the method of Kelly et al, Aust. […] 2-Amino-4-(5′-(piperidin-1″-yl)benzimidazol-2′-yl)aniline was prepared by hydrogenation of 2-nitro-4-(5′-(piperidin-1″-yl)benzimidazol-2′-yl)aniline, using a modification of the method of Kelly et al, Aust. […] Ethyl 4-amino-3-nitrobenzenecarboximidate hydrochloride was prepared by reaction of 4-amino-3-nitrobenzonitrile with dry HCl gas in ethanol, using the method of Kelly et al, Aust. […] 5-(4′-Methylpiperazin-1′-yl)-2-nitroaniline was prepared using a modification of the method of Kelly et al, Aust. […] The following chemicals were obtained from the chemical suppliers indicated: 2-furaldehyde (Aldrich), 2-pyridinecarboxaldehyde (Aldrich), 3-fluoropyridine-2-carbaldehyde (Maybridge), 3-trifluoromethylpyridine-2-carboxaldehyde (Apollo Scientific), 6-methyl-2-pyridinecarboxaldehyde (Matrix Scientific), 5-methylpyridine-2-carbonitrile (Apollo Scientific), 4-methyl-2-pyridinecarbonitrile (Aldrich), 4-chloro-2-pyridinecarbonitrile (Aldrich), 4-methoxypicolinonitrile (Combi-Blocks), pyrazinecarbonitrile (Aldrich), 2-quinolinecarbonitrile (Aldrich), 3-isoquinolinecarbonitrile (Aldrich), 1-isoquinolinecarboxylic acid (Aldrich), indazole-3-carboxylic acid (Aldrich), 2-hydroxynicotinic acid (Aldrich), 4-hydroxypiperidine (Aldrich), 1-methylhomopiperazine (Aldrich), 3-hydroxypiperidine (Aldrich), 4-(N-BOC-amino)piperidine (Aldrich), 4-methoxypiperidine (Acros), 4-methyl-3-nitrobenzonitrile (Aldrich), 5-chloro-2-nitroaniline (Aldrich), 2-cyanopyridine (Aldrich), methyl 4-amino-2-methoxybenzoic acid (Aldrich), 4-(trifluoromethyl)-2-pyridinecarbonitrile (Matrix Scientific), cis-2,6-dimethylmorphoiline (Acros), 5-(trifluoromethyl)-2-pyridinecarbonitrile (Advanced Chemical Intermediates) and 5-fluoro-2-pyridinecarbonitrile (Advanced Chemical Intermediates). • ix. […] Melting points were determined using an Electrothermal melting point apparatus, and are uncorrected. […] The abbreviations s for singlet, d for doublet, t for triplet, q for quartet, br for broad and m for muitiplet were used in the assignments of multiplicity. A value approximating the centre of a multiplet is quoted. […] The addition of a few drops of acetic acid to methanol-d4 solutions was used to enhance solubility for the acquisition of ^13C nmr spectra. Mass spectra were recorded on a Micromass Quattro II mass spectrometer and accurate mass analyses were carried out by the School of Chemistry at the University of Melbourne on a Finnigan LTQ-FT model high resolution mass spectrometer. Thin layer chromatography (TLC) was carried out using Merck silica gel 60 F254 aluminium sheets or Merck neutral aluminium oxide 150 F254 sheets. Flash column chromatography was carried out using Ajax silica gel 230-400 mesh. • xi.

| melting point | Compound | IC50 [1] | DMF10 (dose modification factor at a concentration of 10 microM of radioprotector) [2] | DMFm (dose modification factor at maximum protection) [2] | PF (protection factor = Sm/So) [2] |
| --- | --- | --- | --- | --- | --- |
| 200 °C (dec.) | Cc1ccnc(-c2nc3ccc(-c4nc5ccc(N6CCN(C)CC6)cc5[nH]4)cc3[nH]2)c1 [Example 7, 4-Methyl-2-(5′-(5″-(4′″-methylpiperazin-1′″-yl)benzimidazol-2″-yl)benzimidazol-2′-yl)pyridine] | 130 µM | 2.36 | 2.55 | 183.8 |
| 195 °C (dec.) | CN1CCN(c2ccc3nc(-c4ccc5nc(-c6cc(Cl)ccn6)[nH]c5c4)[nH]c3c2)CC1 [Example 8, 4-Chloro-2-(5′-(5″-(4′″-methylpiperazin-1′″-yl)benzimidazol-2″-yl)benzimidazol-2′-yl)pyridine] | 80 µM | 2.12 | 2.20 | 39.6 |
| 220 °C (dec.) | CNc1ccnc(-c2nc3ccc(-c4nc5ccc(N6CCN(C)CC6)cc5[nH]4)cc3[nH]2)c1 [Example 9, 4-Methylamino-2-(5′-(5″-(4′″-methylpiperazin-1′″-yl)benzimidazol-2″-yl)benzimidazol-2′-yl)pyridine] | 59.9 µM | 1.14 | 1.55 | 7.1 |
| 216 to 220 °C | CN1CCN(c2ccc3nc(-c4ccc5nc(-c6cc(N(C)C)ccn6)[nH]c5c4)[nH]c3c2)CC1 [Example 10, 4-Dimethylamino-2-(5′-(5″-(4′″-methylpiperazin-1′″-yl)benzimidazol-2″-yl)benzimidazol-2′-yl)pyridine] | 18.6 µM | 1.39 | 1.51 | 10.1 |
| 190 °C (dec.) | COc1ccnc(-c2nc3ccc(-c4nc5ccc(N6CCN(C)CC6)cc5[nH]4)cc3[nH]2)c1 [Example 11, 4-Methoxy-2-(5′-(5″-(4′″-methylpiperazin-1′″-yl)benzimidazol-2″-yl)benzimidazol-2′-yl)pyridine] | 53.6 µM | 1.95 | 2.28 | 51.4 |

Second part, the compound before the results:

| Compound | melting point | IC50 [1] | DMF10 (dose modification factor at a concentration of 10 microM of radioprotector) [2] | DMFm (dose modification factor at maximum protection) [2] | PF (protection factor = Sm/So) [2] |
| --- | --- | --- | --- | --- | --- |
| CN1CCN(c2ccc3nc(-c4ccc5nc(-c6ccco6)[nH]c5c4)[nH]c3c2)CC1 [Example 1, 2-(5′-(5″-(4′″-Methylpiperazin-1′″-yl)benzimidazol-2″-yl)benzimidazol-2′-yl)furan] | 202 to 224 °C (dec.) | 57.3 µM | 1.14 | 1.37 | 7.7 |
| CN1CCN(c2ccc3nc(-c4ccc5nc(-c6ncccc6F)[nH]c5c4)[nH]c3c2)CC1 [Example 3, 3-Fluoro-2-(5′-(5″-(4′″-methylpiperazin-1′″-yl)benzimidazol-2″-yl)benzimidazol-2′-yl)pyridine] | 201 to 214 °C | 93.1 µM | 1.40 | 1.80 | 15.3 |
| CN1CCN(c2ccc3nc(-c4ccc5nc(-c6ncccc6C(F)(F)F)[nH]c5c4)[nH]c3c2)CC1 [Example 4, 2-(5′-(5″-(4′″-Methylpiperazin-1′″-yl)benzimidazol-2″-yl)benzimidazol-2′-yl)-3-trifluoromethylpyridine] | 189 to 191 °C | 190 µM | 1.41 | 1.99 | 30.5 |
| CN1CCN(c2ccc3nc(-c4ccc5nc(-c6ccc(F)cn6)[nH]c5c4)[nH]c3c2)CC1 [Example 47, 5-fluoro-2-(5′-(5″-(4′″-methylpiperazin-1″-yl)benzimidazol-2″-yl)benzimidazol-2′-yl)pyridine] |  | 538 µM | 2.20 | 2.46 | 40.0 |
| C[C@@H]1CN(c2ccc3nc(-c4ccc5nc(-c6ccccn6)[nH]c5c4)[nH]c3c2)C[C@H](C)O1 [Example 52, 2-(5′-(5″-(cis-2′″,6′″-dimethylmorpholino)benzimidazol-2″-yl)benzimidazol-2′-yl)pyridine] |  | 134 µM | 1.40 | 1.75 | 55.9 |
| CN(CCO)c1ccc2[nH]c(-c3ccc4[nH]c(-c5ccccn5)nc4c3)nc2c1 [Example 54, 2-(5′-(5″-(3′″-hydroxyethyl-1′″-methylamino)benzimidazol-2″-yl)benzimidazol-2′-yl)pyridine] |  | 94.3 µM | 1.15 | 1.87 | 20.2 |
